Like-named read-outs stand apart in the source and are kept apart here. Numbered stars: 1 amine (or outer) side, 2 acyl side, 3 side chain; on linkers, the order of the positions; unused ones are H or OH. Bridge positions count the residues as written; N and C are the ends. Square brackets hold non-standard residues; d marks the D form. Peptide text beside a SMILES is read from it. TBMB = c1c(C[*:1])cc(C[*:3])cc1C[*:2]; hArg = N=C(N)NCCCC[C@H](N)C(=O)O; Aze = O=C(O)[C@@H]1CCN1
Key:
[1] = Intravenous pharmacokinetics in Sprague Dawley rats; assay type: in vivo; conditions: rat; for half-life: iv, 5.2 mg/kg
Protocol: Peptides were applied as intravenous boli in PBS-buffered solution at 1.02 mg/mL (containing 2.9% DMSO) at 5.2 mg/kg to Sprague Dawley rats, and serial blood samples were taken from each animal via temporary indwelling tall vein cannulae at 5, 10, 20, 30, 60, 120, and 240 minutes post dose, and transferred to EDTA tubes for plasma generation. Data was acquired for peptide “all D Ac-06-34-18” from 3 rats, for “Ac-(06-34-18) Phe2 Aze3 Tyr4 HArg5 Ala(ψCH2NH)6” from two rats, and for “Ac-(06-34-18) Phe2 Aze3 Tyr4 HArg5 D-Asp9” from two rats.
Plasma samples were then treated with 3 volumes of a 1:1 mixture of acetonitrile and methanol, precipitated proteins were removed by centrifugation, and the supernatant was analysed by UPLC-MS/MS.
Quantification for peptide content in the samples was by reference to a calibration line prepared in control rat plasma. Pharmacokinetic parameters were determined by non-compartmental analysis using the software package PK Solutions 2.0 from Summit Research Services.

[2] = Plasma stability profiling Method #1 (MALDI-TOF, 35% plasma), human plasma; assay type: in vitro ADME; conditions: MALDI TOF assay (Methods #1 and #2), t=0, 21 and 46 hrs
Protocol: A rapid plasma stability profiling assay was developed that employed mass spectrometric detection (MALDI-TOF, Voyager DE, Applied Biosystems) of the parent mass, until the time when the parent peptide mass was no longer observable. Specifically, 200 uM of peptide was incubated in the presence of 35% rat or human plasma (Sera labs, using citrate as anticoagulant) at 37 deg C., which was supplemented with 1×PBS (derived from a 10×PBS Stock, Sigma). […] Samples were frozen at −80 deg C. until the time of analysis. For mass spectrometric analysis that determines the approximate detection window of the peptide, the acetonitrile:H2O-diluted sample of a given time point was spotted directly (0.7 uL) onto the MALDI plate. Matrix (alpha-cyanocinnamic acid, Sigma, prepared as a saturated solution in 1:1 acetonitrile:water containing 0.1% trifluoroacetic acid) was layered over the sample (1 uL). At a similar laser intensity setting on the MALDI TOF, the time could then be determined until parent peptide was no longer detectable. It should be noted that this is a qualitative assay serves to detect relative changes in plasma stability.

[3] = Plasma stability profiling Method #1 (MALDI-TOF, 35% plasma), rat plasma; assay type: in vitro ADME; conditions: MALDI TOF assay (Methods #1 and #2), t=0, 21 and 46 hrs
Summary of the method: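 Qualitative test: 200 µM peptide incubated at 37 °C in 35% rat or human citrated plasma supplemented with PBS, sampled at 0, 3, 24 h then daily up to 10 days. Parent mass tracked by MALDI-TOF; value is time until parent peptide no longer detectable.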

human plasma Kallikrein [4] = biological target: T1, human plasma Kallikrein (Homo sapiens, UniProt P03952); assay: Functional enzyme inhibition assay with fluorogenic substrate Z-PheArg-AMC, human plasma Kallikrein; assay type: biochemical; conditions: for Ki: read-out: Ki (nM) (human kallikrein)
T1 construct: purchased Stratech, UK
T1 sequence (P03952 20-638): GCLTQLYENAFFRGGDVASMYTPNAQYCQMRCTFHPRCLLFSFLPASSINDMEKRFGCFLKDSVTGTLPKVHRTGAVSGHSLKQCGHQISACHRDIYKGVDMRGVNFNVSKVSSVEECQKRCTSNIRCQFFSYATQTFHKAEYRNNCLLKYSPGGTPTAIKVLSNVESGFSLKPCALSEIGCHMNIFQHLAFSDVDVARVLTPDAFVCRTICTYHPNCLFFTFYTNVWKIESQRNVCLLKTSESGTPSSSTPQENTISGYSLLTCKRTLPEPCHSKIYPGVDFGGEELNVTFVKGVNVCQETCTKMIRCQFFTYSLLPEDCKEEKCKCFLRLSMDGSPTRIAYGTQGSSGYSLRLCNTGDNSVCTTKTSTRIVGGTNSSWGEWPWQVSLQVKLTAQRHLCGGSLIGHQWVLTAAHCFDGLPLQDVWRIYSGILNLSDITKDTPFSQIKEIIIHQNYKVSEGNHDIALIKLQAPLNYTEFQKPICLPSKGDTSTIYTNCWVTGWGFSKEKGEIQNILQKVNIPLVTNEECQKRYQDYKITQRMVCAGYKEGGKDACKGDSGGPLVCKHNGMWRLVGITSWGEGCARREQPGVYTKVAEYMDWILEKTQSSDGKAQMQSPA
Summary of the method: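 Human plasma kallikrein at 26.5 pM was preincubated 15 minutes with test peptide in Tris/NaCl/MgCl2/CaCl2/BSA buffer pH7.4 at 25° C, then Z-PheArg-AMC added to 100 μM final in 4% DMSO.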

rat plasma Kallikrein [5] = biological target: T2, rat plasma Kallikrein (Rattus norvegicus, UniProt P14272); conditions: Table 1; read-out: Ki (nM) (rat kallikrein); cited from earlier work
T2 construct: polyhistidine tag (N, cleaved yes); proTEV cleavage site (pro-peptide linker) (N, cleaved yes); made in house; host or cells: HEK-293 (suspension-adapted)
T2 sequence (P14272 391-638 limits assumed): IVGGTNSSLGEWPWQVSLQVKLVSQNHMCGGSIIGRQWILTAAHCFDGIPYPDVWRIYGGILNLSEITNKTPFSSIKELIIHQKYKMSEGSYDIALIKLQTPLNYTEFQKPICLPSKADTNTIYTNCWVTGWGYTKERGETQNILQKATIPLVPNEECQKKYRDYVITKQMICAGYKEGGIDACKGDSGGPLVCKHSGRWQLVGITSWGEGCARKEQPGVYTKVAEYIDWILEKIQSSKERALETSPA

[6] = Table 1; Method #3; cited from earlier work
[7] = Quantitative plasma stability Method #3 (LC-MS, 95% plasma), rat plasma; assay type: in vitro ADME; conditions: rat, plasma; Table 15; method #3; read-out: t1/2 (hrs) in rat plasma (converted)
Protocol: To obtain plasma stability quantitatively, peptide stock solutions (1 mM in DMSO) were shipped to Biofocus, UK, who performed the analysis. Peptides were diluted to 100 uM with water, and diluted 1:20 in plasma (5 uM final concentration, with the plasma at 95%), sampled as appropriate, precipitated as above, and quantified using a Waters Xevo TQ-MS.

human plasma Kallikrein [8] = biological target: T1, human plasma Kallikrein; conditions: Table 1, as disclosed in PCT/EP2012/069898; cited from earlier work
factor XIa (hfXIa) = factor XIa (hfXIa) (Homo sapiens, UniProt P03951); conditions: highest concentration tested (10 μM); cited from earlier work
Chain of factor XIa (hfXIa) (P03951 388-625 limits assumed): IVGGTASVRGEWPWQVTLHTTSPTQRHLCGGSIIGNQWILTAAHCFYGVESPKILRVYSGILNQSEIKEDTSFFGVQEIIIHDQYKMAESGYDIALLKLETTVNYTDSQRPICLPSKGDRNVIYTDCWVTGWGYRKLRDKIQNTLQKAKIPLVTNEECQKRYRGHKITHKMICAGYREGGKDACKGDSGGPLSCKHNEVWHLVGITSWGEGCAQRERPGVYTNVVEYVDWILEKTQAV
Chain of factor XIa (hfXIa) (P03951 19-387 partner limits assumed): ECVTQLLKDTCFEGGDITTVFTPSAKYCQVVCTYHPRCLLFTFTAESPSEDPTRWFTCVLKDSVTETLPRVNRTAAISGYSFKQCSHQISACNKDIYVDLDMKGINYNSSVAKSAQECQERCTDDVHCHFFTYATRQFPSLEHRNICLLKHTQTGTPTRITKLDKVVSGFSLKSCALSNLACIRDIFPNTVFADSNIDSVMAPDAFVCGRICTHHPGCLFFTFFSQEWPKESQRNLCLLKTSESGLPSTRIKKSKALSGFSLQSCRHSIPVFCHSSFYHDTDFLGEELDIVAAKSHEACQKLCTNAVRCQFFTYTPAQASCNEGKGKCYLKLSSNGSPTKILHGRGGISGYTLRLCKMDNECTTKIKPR

rat PK = rat PK (Rattus norvegicus, UniProt P14272); conditions: highest concentration tested (10 μM); cited from earlier work
Chain of rat PK (P14272 20-638): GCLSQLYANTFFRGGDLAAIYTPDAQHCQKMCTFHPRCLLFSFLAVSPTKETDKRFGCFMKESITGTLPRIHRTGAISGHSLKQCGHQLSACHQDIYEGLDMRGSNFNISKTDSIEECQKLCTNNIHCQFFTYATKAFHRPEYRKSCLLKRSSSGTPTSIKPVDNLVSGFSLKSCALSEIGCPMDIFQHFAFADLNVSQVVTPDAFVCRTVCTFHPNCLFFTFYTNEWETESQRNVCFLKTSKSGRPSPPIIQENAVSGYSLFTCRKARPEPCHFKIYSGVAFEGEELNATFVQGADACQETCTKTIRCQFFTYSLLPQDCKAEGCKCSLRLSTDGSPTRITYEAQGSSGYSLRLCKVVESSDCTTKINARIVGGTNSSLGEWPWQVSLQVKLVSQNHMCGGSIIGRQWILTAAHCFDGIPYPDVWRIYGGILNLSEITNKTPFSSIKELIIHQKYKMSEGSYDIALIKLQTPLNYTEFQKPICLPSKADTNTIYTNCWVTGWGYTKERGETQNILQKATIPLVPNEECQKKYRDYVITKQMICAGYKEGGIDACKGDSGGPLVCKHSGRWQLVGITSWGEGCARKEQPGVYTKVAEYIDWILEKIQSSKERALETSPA

thrombin = thrombin (Homo sapiens, UniProt P00734); conditions: highest concentration tested (10 μM); cited from earlier work
human PK (hPK) = human PK (hPK) (Homo sapiens, UniProt P03952); conditions: cited from earlier work
Chain of human PK (hPK) (P03952 20-638): as the sequence (P03952 20-638) above

rat plasma Kallikrein [9] = biological target: T2, rat plasma Kallikrein; assay: Functional enzyme inhibition assay with fluorogenic substrate Z-PheArg-AMC, rat plasma Kallikrein; assay type: biochemical; conditions: Table 26b, loop 1 and loop 2 modified derivatives
Protocol: Functional enzyme assays were conducted in 10 mM Tris HCl, 150 mM NaCl, 10 mM MgCl2, 1 mM CaCl2) and 1 mg/mL BSA (all Sigma UK) pH7.4 at 25° C. in solid black 96 well plates. Briefly 26.5 pM human plasma Kallikrein (purchased from Stratech, UK) or 500 pM rat plasma Kallikrein (expressed and purified in house) were incubated in the absence or presence of increasing concentrations of test peptide for 15 minutes before addition of the fluorogenic substrate Z-PheArg-AMC (Enzo Lifesciences UK) to a final assay concentration of 100 μM in 4% DMSO. Release of AMC was measured using a Pherastar FS (BMG Labtech), excitation 360 nm, emission 460 nm. The rate of the linear phase of the reaction, typically 5 to 45 minutes, was calculated in MARS data analysis software (BMG labtech). The rate was then used to calculate the IC50 and Ki in Prism (GraphPad). A four parameter inhibition non-linear regression equation was used to calculate the IC50.
Peptides were dissolved as the TFA-salts in their powder form, and stock solutions were usually prepared in water. All solutions were centrifuged and filtered ([…] syringe filters) prior absorption measurement at 280 nm. Extinction coefficients were calculated based on the Trp/Tyr content of the peptide, and that of TMB (the TMB core, when contained in a peptide, has an ε of ˜300 M^−1cm^−1). For peptides containing non-natural amino acids with suspected chromophoric properties (i.e. NorHar, 4PhenylPro, 3Pal, 4Pal, Tic, 4GuanPhe, 4,4-BPAI, 3,3-DPA, 1NAI, 2NAI, 4BenzylPro, Ind) concentrations were determined by weighing the powder and dissolving the peptide in a defined quantity of water.

[10] = Sprague Dawley, plasma, intravenous bolus 5.2 mg/kg, read-out: elimination half-life
[11] = Sprague Dawley, plasma, intravenous, read-out: t1/2 elimination

In the case of `CC(=O)N[C@H]1CSCc2cc3cc(c2)CSC[C@H](NC(=O)[C@H](CCCCNC(=N)N)NC(=O)[C@H](Cc2ccc(O)cc2)NC(=O)[C@@H]2CCN2C(=O)[C@H](Cc2ccccc2)NC(=O)[C@H](CO)NC1=O)C(=O)N[C@@H](C)CN[C@@H](Cc1c[nH]cn1)C(=O)N[C@@H](CCC(N)=O)C(=O)N[C@@H](CC(=O)O)C(=O)N[C@@H](CC(C)C)C(=O)N[C@H](C(N)=O)CSC3`, the clearance ([1]; Sprague Dawley, plasma, intravenous bolus 5.2 mg/kg) is reported as 5.8 mL/min/kg, the half-life [1, 10] is reported as 48 min and the half-life [1, 11] is reported as 48 min. For the same compound, the “Clearance based on AUC0-∞” value ([1]; intravenous) was 6.2 mL/min/kg, the “Volume of distribution based on AUC0-∞” value ([1]; intravenous) was 0.44 L/kg and the “stability in human plasma compared to wildtype peptide” value [2] was “remarkably enhanced stability”. The “stability in rat plasma compared to wildtype peptide” value [3] was “remarkably enhanced stability”.

For `CC(=O)N[C@H]1CSCc2cc3cc(c2)CSC[C@H](NC(=O)[C@H](Cc2ccc(NC(=N)N)cc2)NC(=O)[C@H](C)NC(=O)[C@@H]2CCCN2C(=O)[C@H](Cc2c[nH]c4ccccc24)NC(=O)[C@H](CO)NC1=O)C(=O)N[C@@H](CC(C)C)C(=O)N[C@@H](Cc1c[nH]cn1)C(=O)N[C@@H](CCC(N)=O)C(=O)N[C@@H](CC(=O)O)C(=O)N[C@@H](CC(C)C)C(=O)N[C@H](C(N)=O)CSC3` [Ac-(06-34-18) 4GuanPhe5], the “reduction in potency/affinity compared to wildtype” value (human plasma Kallikrein [4]) is listed as 2 fold, the Ki (human plasma Kallikrein [4]; Table 15) is listed as 0.34 nM and the Ki (rat plasma Kallikrein [5]) is listed as 3 nM. The “t1/2 (hrs) in rat plasma” value [6] was 2.8 h, the half-life at 5 uM [7] was 2.8 h and the Ki (human plasma Kallikrein [8]) was 0.34 nM.

In the case of H-ACSDRFRNCPADEALCG-NH2 [PK15], the “inhibition of factor XIa (hfXIa)” value (factor XIa (hfXIa)) is listed as “did not inhibit”, the “inhibition of rat PK” value (rat PK) is listed as “did not inhibit” and the inhibition of thrombin (thrombin) is listed as “did not inhibit”. The Ki (human PK (hPK); Heinis et al. 2009, read-out: Kl human PK (hPK)) was 3 nM and the IC50 (human PK (hPK); background, read-out: IC50 binding constant for human Kallikrein) was 1.7 nM.

`CC(=O)N[C@H]1CSCc2cc3cc(c2)CSC[C@H](NC(=O)[C@H](CCCCNC(=N)N)NC(=O)[C@H](Cc2ccc(O)cc2)NC(=O)[C@@H]2CCN2C(=O)[C@H](Cc2ccccc2)NC(=O)[C@H](CO)NC1=O)C(=O)N[C@@H](CC(C)C)C(=O)N[C@@H](Cc1c[nH]cn1)C(=O)N[C@@H](CCC(N)=O)C(=O)N[C@H](CC(=O)O)C(=O)N[C@@H](CC(C)C)C(=O)N[C@H](C(N)=O)CSC3` (Ac-CSF[Aze]Y[hArg]CLHQ[dD]LC-NH2; linker 1-7-13 via TBMB) showed a Ki (human plasma Kallikrein [4]; Table 26b, loop 1 and loop 2 modified derivatives) of 0.9 nM, a half-life [1, 10] of about 27 min and a half-life [1, 11] of 27 min. The Ki (rat plasma Kallikrein [9]) was 14 nM, the “stability in human plasma compared to wildtype peptide” value [2] was “remarkably enhanced stability” and the “stability in rat plasma compared to wildtype peptide” value [3] was “remarkably enhanced stability”.
